# Like-named read-outs stand apart in the source and are kept apart here.
# How the values were obtained:
# [1] = septic shock patients, VASST trial, Nakada et al.; cited from earlier work
# [2] = cited from earlier work
# [3] = Table 1 overview of parameters, infusion rate 0.03 units/minute, TT vs AA/AT genotype patients; type: in vivo, human; details: for clearance / level at time molar: human, in vivo, 0.03 units/minute; for clearance: intravenous; for level at time molar: iv
# [4] = Phase 1 open-label parallel-group PK study of IV vasopressin in healthy volunteers by LNPEP rs4869317 genotype; type: in vivo, human; details: for Css (Max) / Css (Min) / level at 1 h / clearance: plasma; for level at 1 h / clearance: both sexes, human, iv; for level at 1 h: 200 uU/kg/min; for clearance: 200 μU/kg/min
# Description: The primary objective of this study was to evaluate differences in plasma clearance of vasopressin following IV administration in subjects with the TT genotype (rs4869317) versus those with the AA/AT genotype of the LNPEP gene in healthy volunteers. The secondary objective of the study was to assess the safety and tolerability of vasopressin in healthy volunteers. This was a Phase 1, open-label, 2-arm, parallel group, PK study in healthy volunteers. Approximately 48 healthy male and female subjects were enrolled at a single center in the United States to achieve at least 19 evaluable subjects per genotype group. The study comprised a screening period, a treatment period, and a follow-up phone call.
# Subjects were screened for general good health over a 28-day period. Screening evaluations included medical history, physical examination, vital sign measurement, 12-lead electrocardiogram (ECG), and clinical laboratory testing (hematology, serum chemistry, and urinalysis). In addition, subjects were advised of the diet and medication restrictions and agreed to conform to them.
# As a part of screening, the LNPEP genotype (TT or AA/AT) of the subjects was determined. The target enrollment was 24 subjects with the SNP rs4869317 (TT genotype). As the control group, 24 subjects with the AA/AT genotype were approximately matched with respect to age (±5 years), sex, race, BMI (±5%), and creatinine clearance (±10 mL/min). An effort was made to enroll at least 4 female subjects in each genotype group. Subjects were matched during screening and confirmed at check-in on Day-2. Subjects were enrolled for participation in 2 genotype groups of a minimum size of 24 subjects per genotype group in order to meet a minimum of 19 evaluable subjects per genotype group.
# A dose of 200 μU/kg/min vasopressin (VASOSTRICT®) was used for this healthy volunteer PK study. The dose roughly corresponds to 0.012 units/minute for a 60 kg individual. This value is approximately equal to the starting dose of 0.01 units/minute in the VASOSTRICT® prescribing information. Clearance in healthy volunteers (15 mL/min/kg) at the vasopressin dose of 200 μU/kg/minute planned for study is within this range. Blood samples for PK analysis were drawn at baseline and 5, 15, 30, and 60 minutes following infusion. If TT genotyped subjects cleared vasopressin at a faster rate, patients of this genotype may benefit from an altered dosing regimen.
# Subjects who meet all inclusion and none of the exclusion criteria received vasopressin continuous IV infusion at a constant rate of 200 μU/kg/min for 60 minutes on Day 1. To minimize orthostatic hypotension, subjects remained supine throughout the duration of the infusion. Eligible subjects were admitted to the clinical unit on Day-2, i.e., two days prior to dosing, to ensure adequate hydration and to standardize sodium intake. Vasopressin levels were also be determined during this period. Subjects remained confined until completion of all study procedures. While in the clinical unit, subjects were fed a standard diet with a dietary sodium intake limited to 2300 mg per day and drank no less than 1.0 to 1.5 L of water per day in addition to usual consumed beverages.
# Study drug was administered on the morning of Day 1 under standard fasting conditions (minimum of 10-hour overnight fast). Passive telemetry monitoring occurred during the infusion. One hour prior to dosing, each subject was given an oral water load of 20 mL/kg to be consumed within 30 minutes. Thereafter, a second 20 mL/kg volume of water was made available. Subjects continued to drink water at regular intervals through the next 90 minutes (end of the infusion). Subjects were asked to pass urine spontaneously within 15 minutes prior to the start of infusion. The fasting restriction continued until the end of the infusion.
# Subjects remained in the clinical unit after the end of the infusion and were discharged the following day (Day 2). […]
# [5] = cited from earlier work; remark: listed apart in the source
# [6] = AA/AT (n=12) vs TT (n=12), 60 minute continuous IV infusion 200 μU/kg/min
# [7] = AA/AT genotype healthy volunteers (12 subjects), 200 μU/kg/min continuous IV infusion for 60 minutes
# [8] = TT compared with AA/AT genotype
# [9] = TT genotype healthy volunteers (12 subjects), 200 μU/kg/min continuous IV infusion for 60 minutes
compound,measurement,setting,value
"NC(=O)CC[C@@H]1NC(=O)[C@H](Cc2ccccc2)NC(=O)[C@H](Cc2ccc(O)cc2)NC(=O)[C@@H](N)CSSC[C@@H](C(=O)N2CCC[C@H]2C(=O)N[C@@H](CCCN=C(N)N)C(=O)NCC(N)=O)NC(=O)[C@H](CC(N)=O)NC1=O [vasopressin, Cyclo (1-6) L-Cysteinyl-L-Tyrosyl-L-Phenylalanyl-L-Glutaminyl-L-Asparaginyl-L-Cysteinyl-L-Prolyl-L-Arginyl-L-Glycinamide]","vasopressin clearance, TT vs AA or AT genotyped patients (in words)",[1],increase in vasopressin clearance
same,rates of serious adverse events in AA genotype patients (in words),"[2]; septic shock patients who received vasopressin, Anantasit et al.",significantly higher rates of serious adverse events
same,"AVP blood levels, TT/TA vs AA genotype (in words)","[2]; septic shock patients, Anantasit et al. FIG. 2",statistically significant higher AVP blood levels
same,% change in the pharmacokinetic parameters in AA/AT genotype patients vs. TT genotype patients,[3],<33%
same,% increase in clearance in AA/AT genotype patients vs. TT genotype patients,[3],≥46%
same,clearance,[3]; read-out: Clearance in AA/AT genotype patients,28.7 mL/min/kg
same,clearance,[3]; read-out: Clearance in TT genotype patients,19.7 mL/min/kg
same,level at time molar,[3]; read-out: Concentration at steady state in AA/AT genotype patients,3.17 pM
same,level at time molar,[3]; read-out: Concentration at steady state in TT genotype patients,4.7 pM
same,higher plasma clearance in AA/AT than TT rs4869317 genotype,[4]; [6],25.5%
same,lower steady state concentration in AA/AT than TT rs4869317 genotype,[4]; [6],21.42%
same,Css (Max),[4]; [7],0.0414 ng/mL
same,Css (Min),[4]; [7],0.0101 ng/mL
same,"vasopressin clearance, TT vs AA/AT genotyped patients (in words)",[4]; [8],lower vasopressin clearance
same,"vasopressin plasma concentrations, TT vs AA/AT genotyped patients (in words)",[4]; [8],higher vasopressin plasma concentrations
same,Css (Max),[4]; [9],0.0861 ng/mL
same,Css (Min),[4]; [9],0.0171 ng/mL
same,mean clearance in TT patients less than that of AA/AT patients,[4]; TT vs AA/AT genotype,about 20%
same,mean steady state plasma concentration in TT patients higher than that of AA/AT patients,[4]; TT vs AA/AT genotype,about 27.4%
same,level at 1 h,"[4]; AA/AT genotype healthy volunteers (12 subjects), 200 μU/kg/min continuous IV infusion for 60 minutes, read-out: Css (Mean), concentration at steady state",0.025 ng/mL
same,level at 1 h,"[4]; AA/AT genotype healthy volunteers (12 subjects), 200 μU/kg/min continuous IV infusion for 60 minutes, read-out: Css (Median)",0.0251 ng/mL
same,level at 1 h,"[4]; AA/AT rs4869317 genotype (n = 12), 60 minute continuous IV infusion 200 μU/kg/min, read-out: Steady State Concentration at 60 minutes (Css)",0.025 ng/mL
same,level at 1 h,"[4]; TT genotype healthy volunteers (12 subjects), 200 μU/kg/min continuous IV infusion for 60 minutes, read-out: Css (Mean), concentration at steady state",0.0319 ng/mL
same,level at 1 h,"[4]; TT genotype healthy volunteers (12 subjects), 200 μU/kg/min continuous IV infusion for 60 minutes, read-out: Css (Median)",0.0271 ng/mL
same,level at 1 h,"[4]; TT rs4869317 genotype (n = 12), 60 minute continuous IV infusion 200 μU/kg/min, read-out: Steady State Concentration at 60 minutes (Css)",0.0319 ng/mL
same,clearance,"[4]; AA/AT genotype healthy volunteers (12 subjects), 200 μU/kg/min continuous IV infusion for 60 minutes, read-out: CL (Max)",37.3 mL/min/kg
same,clearance,"[4]; AA/AT genotype healthy volunteers (12 subjects), 200 μU/kg/min continuous IV infusion for 60 minutes, read-out: CL (Mean)",17.4 mL/min/kg
same,clearance,"[4]; AA/AT genotype healthy volunteers (12 subjects), 200 μU/kg/min continuous IV infusion for 60 minutes, read-out: CL (Median)",15 mL/min/kg
same,clearance,"[4]; AA/AT genotype healthy volunteers (12 subjects), 200 μU/kg/min continuous IV infusion for 60 minutes, read-out: CL (Min)",9.1 mL/min/kg
same,clearance,"[4]; AA/AT rs4869317 genotype (n = 12), 60 minute continuous IV infusion 200 μU/kg/min, read-out: Total Plasma Clearance (CL) Value",17.4 mL/min/kg
same,clearance,"[4]; TT genotype healthy volunteers (12 subjects), 200 μU/kg/min continuous IV infusion for 60 minutes, read-out: CL (Max)",22 mL/min/kg
same,clearance,"[4]; TT genotype healthy volunteers (12 subjects), 200 μU/kg/min continuous IV infusion for 60 minutes, read-out: CL (Mean)",13.8 mL/min/kg
same,clearance,"[4]; TT genotype healthy volunteers (12 subjects), 200 μU/kg/min continuous IV infusion for 60 minutes, read-out: CL (Median)",14 mL/min/kg
same,clearance,"[4]; TT genotype healthy volunteers (12 subjects), 200 μU/kg/min continuous IV infusion for 60 minutes, read-out: CL (Min)",4.4 mL/min/kg
same,clearance,"[4]; TT rs4869317 genotype (n = 12), 60 minute continuous IV infusion 200 μU/kg/min, read-out: Total Plasma Clearance (CL) Value",13.8 mL/min/kg
same,dose excreted unchanged in urine,[5]; VASOSTRICT prescribing information 2019,about 6%
same,apparent half-life,"[5]; VASOSTRICT prescribing information, at these levels",< 10 min
same,Clearance in healthy volunteers,[5]; vasopressin dose of 200 μU/kg/minute,15 mL/min/kg

# Source: US10920278B1, “Method to treat hypotension using vasopressin in certain genotypes” (Par Pharmaceutical, Inc., priority 2020, dated 2021)
